This test is described as follows: Strength, stamina and endurance of a training test subject. In kind it is in vivo, human. The protocol: Test subject was administered L-Glutamine HCl (pH 6.0) for 30 days.
Training was three days per week, with 3 days of cardio. Dosage was 500 mg per day the first week and 1000 mg per day for week 2-4.
Test subject was taken off the glutamine HCl (pH 6.0) and administered buffered-Glutamine (pH 12.0) for 30 days. Training was three days per week, with 3 days of cardio. Dosage was 500 mg per day for the 5th week and 1000 mg per day for weeks 6-8.

With `Cl.NC(=O)CC[C@H](N)C(=O)O` [L-Glutamine HCl], the “changes to strength, stamina or endurance (in words)” value runs as follows: (Week 1, 500 mg per day) “No noticeable changes”; (Week 2-4, 1000 mg per day) “No noticeable changes”.
